These are literature values, as cited in patent publication US9949922B2, “Silica hydrogel composite” (DELSITECH OY, priority 2013, dated 2018).

SMILES strings stand for the structures.

For this data set the following is noted: nimodipine value from DrugBank.

As to `O=C1OC2(c3ccc(O)cc3Oc3cc(O)ccc32)c2ccccc21` [Fluorescein], the Water solubility is 800 µg/mL.
